Test results published in patent publication US10112926B2 (priority 2014, dated 2018).
Where a name gives a salt, the structure may show the parent alone. Read-outs that look alike come from different tables or passages of the source.

Assays:
[1] = target: PI 3-kinase beta (Homo sapiens (Human), UniProt P42338); conditions: read-out: Assay B PI3Kβ IC50
[2] = target: Vps34 (Homo sapiens (Human), UniProt Q8NEB9); conditions: read-out: Assay C VPS34 IC50
[3] = target: PI 4-kinase beta (Homo sapiens (Human), UniProt Q9UBF8); conditions: read-out: Assay D PI4Kβ IC50
[4] = target: T1, PI 3-kinase beta (Rat-1 pBABEpuro Myr-HA-hp110 beta cells) (Homo sapiens (Human), UniProt P42338); test: cell-based
Experimental: (§1) Cellular Assays for PI 3-Kinase Alpha (H2), Beta (I2) and Delta (J2): HTRF (Homogeneous Time Resolved Fluorescence) Format
(§2) All cell lines were cultivated in complete growth medium (DMEM high glucose GlutaMAX™ Pyruvate, 10% (v/v) fetal bovine serum, 0.1 mM MEM NEAA, 25 mM HEPES, puromycin 10 μg/mL, 100 U/ml Penicillin, 100 μg/ml Streptomycin) to 90% confluency at 37° C./5% CO2/90% humidity in a humidified CO2 incubator and were split twice a week.
(§3) Semi-automated preparation of cell lysates: For low (inhibited) controls, 0.9 mM NVP-BGT226-AF-1 in 90% (v/v) DMSO was added to the compound master plate. For compound testing, the cells were seeded at a density of 4000 (Rat-1_PI3Kdelta), 8000 (Rat-1_PI3Kalpha), or 6500 (Rat-1_PI3Kbeta) cells in 30 μl complete growth medium into cell culture treated 384-well plates and were grown at 37° C./5% CO2/90% humidity for 24 h. 10 μl of the compound predilutions were transferred to the cells. After treatment with compound for 1 h, medium was removed and cells were lysed by the addition of 20 μl lysis buffer supplemented with blocking buffer. Detection of p-AKT(Ser473) was performed with the HTRF pAKT (Ser473) assay kit according to the manufacturer's instructions using 16 μl of cell lysate in a total detection volume of 20 μl.

[5] = target: PI 3-kinase gamma (Homo sapiens (Human), UniProt P48736)
[6] = target: PI 3-kinase alpha (Homo sapiens (Human), UniProt P42336); conditions: read-out: Assay A PI3Kα IC50
[7] = target: mTOR (Homo sapiens (Human), UniProt P42345); conditions: read-out: Assay G mTOR IC50
[8] = target: T2, PI 3-kinase alpha (Rat-1 pBABEpuro Myr-HA-hp110 alpha cells) (Homo sapiens (Human), UniProt P42336); test: cell-based
Experimental: as §1, §2, §3

[9] = target: PI 3-kinase gamma (U937 cells, MIP1α-stimulated AKT phosphorylation) (Homo sapiens (Human), UniProt P48736); conditions: read-out: Assay K2 PI3Kγ IC50
[10] = target: T1, PI 3-kinase beta (Rat-1 pBABEpuro Myr-HA-hp110 beta cells); test: cell-based; conditions: Assay I PI3Kβ IC50
Text: (§4) Cellular Assays for PI 3-Kinase Alpha (H1), Beta (I1) and Delta (J1): Surefire Format
(§5) The brand name SureFire denotes AlphaScreen assays that are adapted to quantify the phosphorylation of endogenous cellular proteins in cell lysates, by using matched antibody pairs, which consist of an anti-phospho-kinase and an anti-kinase antibody. The assay allows characterization of kinase signaling in cells as well as measurement of kinase inhibitor effects.
(§6) The p-Akt (S473) SureFire assay measures the phosphorylation of endogenous cellular Akt 1/2 at Ser473 in cell lysates. Using Rat-1 cells stably expressing myr-HA-tagged versions of the human PI3Kdelta, PI3Kalpha, or PI3Kbeta p110 catalytic subunit isoforms, the assay was developed as a two-plate protocol in a 384-well format.
(§7) For compound testing, the cells were seeded at a density of 4000 (Rat-1_PI3Kdelta), 7500 (Rat-1_PI3Kalpha), or 6200 (Rat-1_PI3Kbeta) cells in 20 μl complete growth medium into cell culture treated 384-well plates and were grown at 37° C./5% CO2/90% humidity for 24 h. Shortly before compound transfer, the complete medium was removed, 30 μl assay buffer (DMEM high glucose, 1×MEM NEAA, 10 mM HEPES, 2 mM L-glutamine, 0.1% (w/v) BSA) was added and 10 μl of the compound predilutions were transferred to the cells. […]

[11] = target: PI 3-kinase delta (Homo sapiens (Human), UniProt O00329); conditions: read-out: Assay F PI3Kδ IC50
[12] = target: T2, PI 3-kinase alpha (Rat-1 pBABEpuro Myr-HA-hp110 alpha cells); test: cell-based; conditions: Assay H PI3Kα IC50
Text: as §4, §5, §6, §7

Chain of PI 3-kinase gamma (P48736 whole entry): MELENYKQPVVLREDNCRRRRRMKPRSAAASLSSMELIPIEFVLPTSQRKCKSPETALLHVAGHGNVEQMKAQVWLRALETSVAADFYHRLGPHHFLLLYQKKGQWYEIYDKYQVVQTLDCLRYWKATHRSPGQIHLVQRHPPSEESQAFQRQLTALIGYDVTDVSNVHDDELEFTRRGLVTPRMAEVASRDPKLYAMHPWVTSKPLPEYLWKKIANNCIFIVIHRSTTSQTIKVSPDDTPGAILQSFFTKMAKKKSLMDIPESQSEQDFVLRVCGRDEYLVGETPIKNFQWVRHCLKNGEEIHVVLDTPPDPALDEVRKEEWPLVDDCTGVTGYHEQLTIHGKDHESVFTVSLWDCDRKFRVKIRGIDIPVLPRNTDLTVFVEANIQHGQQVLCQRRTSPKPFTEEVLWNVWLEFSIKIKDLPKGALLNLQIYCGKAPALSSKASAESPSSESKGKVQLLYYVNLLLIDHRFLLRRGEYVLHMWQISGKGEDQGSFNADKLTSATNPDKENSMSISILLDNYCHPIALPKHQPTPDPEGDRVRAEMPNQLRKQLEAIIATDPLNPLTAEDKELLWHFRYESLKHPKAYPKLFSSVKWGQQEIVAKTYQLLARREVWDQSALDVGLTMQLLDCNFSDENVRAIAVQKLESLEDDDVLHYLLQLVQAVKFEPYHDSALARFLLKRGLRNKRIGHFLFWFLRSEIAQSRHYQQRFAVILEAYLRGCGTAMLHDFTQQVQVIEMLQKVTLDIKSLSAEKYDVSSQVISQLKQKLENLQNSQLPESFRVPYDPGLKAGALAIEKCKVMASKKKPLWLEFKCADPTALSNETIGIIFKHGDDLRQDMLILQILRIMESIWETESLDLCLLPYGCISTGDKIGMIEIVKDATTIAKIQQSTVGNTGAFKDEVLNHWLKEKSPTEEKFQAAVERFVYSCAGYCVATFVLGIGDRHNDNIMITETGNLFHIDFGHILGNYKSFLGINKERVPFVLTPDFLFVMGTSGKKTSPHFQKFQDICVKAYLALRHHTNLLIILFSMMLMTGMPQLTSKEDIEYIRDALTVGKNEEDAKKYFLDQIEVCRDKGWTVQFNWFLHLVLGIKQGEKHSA
Chain of PI 3-kinase alpha (P42336 whole entry, looked up): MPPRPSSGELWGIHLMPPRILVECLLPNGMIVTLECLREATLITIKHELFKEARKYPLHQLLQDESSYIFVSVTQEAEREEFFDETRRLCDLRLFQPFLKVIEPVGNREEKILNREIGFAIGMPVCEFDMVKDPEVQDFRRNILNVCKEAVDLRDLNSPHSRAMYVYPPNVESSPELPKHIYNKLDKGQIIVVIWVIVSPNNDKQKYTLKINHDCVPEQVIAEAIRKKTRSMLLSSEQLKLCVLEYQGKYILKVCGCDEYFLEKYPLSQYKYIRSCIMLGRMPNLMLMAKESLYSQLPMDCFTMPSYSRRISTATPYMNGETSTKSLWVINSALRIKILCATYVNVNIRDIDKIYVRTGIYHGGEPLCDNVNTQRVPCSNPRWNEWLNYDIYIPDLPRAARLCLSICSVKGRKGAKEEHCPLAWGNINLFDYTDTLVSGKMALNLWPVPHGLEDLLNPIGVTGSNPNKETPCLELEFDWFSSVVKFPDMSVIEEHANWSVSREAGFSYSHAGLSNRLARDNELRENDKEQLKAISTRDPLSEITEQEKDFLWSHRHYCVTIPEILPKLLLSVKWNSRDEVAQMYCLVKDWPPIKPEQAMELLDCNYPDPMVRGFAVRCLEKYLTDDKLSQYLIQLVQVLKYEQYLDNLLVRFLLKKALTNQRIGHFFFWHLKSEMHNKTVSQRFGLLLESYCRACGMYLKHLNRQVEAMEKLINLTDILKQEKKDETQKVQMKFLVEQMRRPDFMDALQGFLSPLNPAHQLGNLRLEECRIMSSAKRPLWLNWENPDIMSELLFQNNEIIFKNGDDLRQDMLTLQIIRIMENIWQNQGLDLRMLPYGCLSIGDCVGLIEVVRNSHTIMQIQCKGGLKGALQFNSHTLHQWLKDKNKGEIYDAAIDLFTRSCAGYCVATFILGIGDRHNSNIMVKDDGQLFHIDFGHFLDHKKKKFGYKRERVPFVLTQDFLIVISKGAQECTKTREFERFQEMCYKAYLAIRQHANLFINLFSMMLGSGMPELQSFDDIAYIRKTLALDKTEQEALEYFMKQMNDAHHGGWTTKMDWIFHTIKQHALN
Chain of PI 3-kinase alpha (P27986 whole entry partner, looked up): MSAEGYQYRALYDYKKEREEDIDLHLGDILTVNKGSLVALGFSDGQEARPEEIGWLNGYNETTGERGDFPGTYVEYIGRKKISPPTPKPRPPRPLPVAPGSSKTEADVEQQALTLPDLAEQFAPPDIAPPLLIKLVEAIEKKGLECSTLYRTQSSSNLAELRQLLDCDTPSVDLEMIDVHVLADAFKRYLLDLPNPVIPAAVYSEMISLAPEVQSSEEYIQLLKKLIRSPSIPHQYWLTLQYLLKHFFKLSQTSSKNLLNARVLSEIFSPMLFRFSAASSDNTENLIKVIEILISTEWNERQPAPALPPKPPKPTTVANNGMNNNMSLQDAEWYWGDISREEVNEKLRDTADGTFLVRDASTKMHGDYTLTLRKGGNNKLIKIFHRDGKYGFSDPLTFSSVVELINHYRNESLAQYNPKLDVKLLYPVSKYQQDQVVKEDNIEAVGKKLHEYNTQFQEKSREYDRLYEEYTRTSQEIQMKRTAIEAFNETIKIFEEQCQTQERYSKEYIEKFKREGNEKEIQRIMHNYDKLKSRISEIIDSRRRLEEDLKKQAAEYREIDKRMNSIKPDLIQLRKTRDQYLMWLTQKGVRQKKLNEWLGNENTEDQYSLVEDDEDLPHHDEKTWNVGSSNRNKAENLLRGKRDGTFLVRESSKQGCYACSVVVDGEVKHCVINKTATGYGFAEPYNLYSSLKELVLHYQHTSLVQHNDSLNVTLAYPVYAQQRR
Chain of PI 3-kinase beta (P42338 whole entry, looked up): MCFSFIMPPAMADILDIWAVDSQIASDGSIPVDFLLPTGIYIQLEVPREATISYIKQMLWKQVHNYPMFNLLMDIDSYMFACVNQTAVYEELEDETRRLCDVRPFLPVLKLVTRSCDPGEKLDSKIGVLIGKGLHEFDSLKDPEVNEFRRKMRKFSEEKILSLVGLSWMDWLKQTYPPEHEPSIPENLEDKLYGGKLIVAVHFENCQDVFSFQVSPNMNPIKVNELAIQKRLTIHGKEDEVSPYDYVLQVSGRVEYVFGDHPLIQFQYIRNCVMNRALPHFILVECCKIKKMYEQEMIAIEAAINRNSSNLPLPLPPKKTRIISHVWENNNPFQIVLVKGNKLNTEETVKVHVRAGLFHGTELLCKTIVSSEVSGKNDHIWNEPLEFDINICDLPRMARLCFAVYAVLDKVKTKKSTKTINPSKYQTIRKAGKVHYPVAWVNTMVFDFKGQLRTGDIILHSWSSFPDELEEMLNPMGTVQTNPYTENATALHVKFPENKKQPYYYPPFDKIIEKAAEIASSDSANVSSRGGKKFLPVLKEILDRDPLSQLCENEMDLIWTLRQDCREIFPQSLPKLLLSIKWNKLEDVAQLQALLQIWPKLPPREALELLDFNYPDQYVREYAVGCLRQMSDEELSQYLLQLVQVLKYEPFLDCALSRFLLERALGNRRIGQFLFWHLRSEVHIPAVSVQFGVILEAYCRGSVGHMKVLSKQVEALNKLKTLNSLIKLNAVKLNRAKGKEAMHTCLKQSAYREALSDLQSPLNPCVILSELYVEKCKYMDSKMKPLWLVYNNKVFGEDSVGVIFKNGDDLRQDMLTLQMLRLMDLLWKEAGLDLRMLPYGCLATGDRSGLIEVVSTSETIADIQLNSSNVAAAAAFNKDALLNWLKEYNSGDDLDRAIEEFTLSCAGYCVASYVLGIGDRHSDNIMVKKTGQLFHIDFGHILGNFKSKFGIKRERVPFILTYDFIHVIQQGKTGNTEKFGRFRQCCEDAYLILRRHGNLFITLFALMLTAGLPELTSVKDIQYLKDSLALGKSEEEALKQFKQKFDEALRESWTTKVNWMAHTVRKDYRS
Chain of PI 3-kinase beta (P27986 whole entry partner, looked up): as the sequence (P27986 whole entry partner, looked up) above
T1 sequence (P42338 whole entry, looked up): as the sequence (P42338 whole entry, looked up) above
T1 sequence (Q63787 whole entry partner, looked up): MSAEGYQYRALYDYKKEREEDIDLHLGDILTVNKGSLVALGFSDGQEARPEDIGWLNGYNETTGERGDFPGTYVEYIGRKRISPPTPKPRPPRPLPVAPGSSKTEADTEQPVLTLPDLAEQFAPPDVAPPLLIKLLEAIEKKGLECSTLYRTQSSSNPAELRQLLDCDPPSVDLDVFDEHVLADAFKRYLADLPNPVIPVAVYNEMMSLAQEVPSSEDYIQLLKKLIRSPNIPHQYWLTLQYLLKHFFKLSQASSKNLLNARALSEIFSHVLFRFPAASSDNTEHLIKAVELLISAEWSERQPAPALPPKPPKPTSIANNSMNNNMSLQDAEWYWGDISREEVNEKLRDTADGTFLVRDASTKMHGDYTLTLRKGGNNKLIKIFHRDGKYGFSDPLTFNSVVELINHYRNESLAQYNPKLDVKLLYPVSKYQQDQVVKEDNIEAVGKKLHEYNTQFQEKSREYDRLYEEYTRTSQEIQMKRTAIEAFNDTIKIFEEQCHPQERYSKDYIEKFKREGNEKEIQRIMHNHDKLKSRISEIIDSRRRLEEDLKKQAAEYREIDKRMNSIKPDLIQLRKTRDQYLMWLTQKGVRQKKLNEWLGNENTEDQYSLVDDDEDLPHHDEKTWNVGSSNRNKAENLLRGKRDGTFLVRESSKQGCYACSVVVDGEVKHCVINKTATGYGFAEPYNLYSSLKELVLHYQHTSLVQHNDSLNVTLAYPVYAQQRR
T2 sequence (P42336 whole entry, looked up): as the sequence (P42336 whole entry, looked up) above
T2 sequence (Q63787 whole entry partner, looked up): as the sequence (Q63787 whole entry partner, looked up) above
Chain of PI 3-kinase gamma (U937 cells, MIP1α-stimulated AKT phosphorylation) (P48736 whole entry): as the sequence (P48736 whole entry) above

SMILES	IC50 [1]	IC50 [2]	IC50 [3]	IC50 [6]	IC50 [7]	also measured
Cc1cc(-c2cc(-c3cc(S(=O)(=O)N4C[C@H](C)[C@@H](O)C4)ccc3C)cnc2N)on1 (relative stereo) [Example 101.3, trans-1-((3-(6-amino-5-(3-methylisoxazol-5-yl)pyridin-3-yl)-4-methylphenyl)sulfonyl)-4-methylpyrrolidin-3-ol]	5100 nM	> 10 µM	3.6 µM	–	–	IC50 [4]: > 10 µM
Cc1noc(-c2cc(-c3cc(S(=O)(=O)NCC(C)(C)O)ccc3C(F)(F)F)cnc2N)n1 [3-(6-amino-5-(3-methyl-1,2,4-oxadiazol-5-yl)pyridin-3-yl)-N-(2-hydroxy-2-methylpropyl)-4-(trifluoromethyl)benzenesulfonamide]	–	–	–	–	–	activity in assay E [5]: inactive
Cc1noc(-c2cc(-c3cc(C(F)(F)F)cc(S(=O)(=O)NCC(C)(C)O)c3)cnc2N)n1 [3-(6-amino-5-(3-methyl-1,2,4-oxadiazol-5-yl)pyridin-3-yl)-N-(2-hydroxy-2-methylpropyl)-5-(trifluoromethyl)benzenesulfonamide]	–	–	–	–	–	activity in assay E [5]: inactive
Cc1cc(-c2cnc(N)c(-c3nc(C)no3)c2)cc(S(=O)(=O)NCC(C)(C)O)c1 [3-(6-amino-5-(3-methyl-1,2,4-oxadiazol-5-yl)pyridin-3-yl)-N-(2-hydroxy-2-methylpropyl)-5-methylbenzenesulfonamide]	–	–	–	–	–	activity in assay E [5]: inactive
Cc1ccc(S(=O)(=O)N[C@H]2CC[C@H](O)CC2)cc1-c1cnc(N)c(-c2cnn(C)c2)c1 [Example 4.1, trans 3-(6-Amino-5-(1-methyl-1H-pyrazol-4-yl)pyridin-3-yl)-N-(4-hydroxycyclohexyl)-4-methylbenzene-sulfonamide]	1600 nM	6.6 µM	3.9 µM	280 nM	9.5 µM	–
Cc1cc(-c2cc(-c3cc(S(=O)(=O)N[C@H]4CC[C@H](O)CC4)ccc3C)cnc2N)ccn1 [Example 4.3, trans 3-(2-Amino-2′-methyl-[3,4′-bipyridin]-5-yl)-N-(4-hydroxycyclohexyl)-4-methyl-benzenesulfonamide]	7200 nM	> 10 µM	1.7 µM	260 nM	7.3 µM	–
Cc1nnc(-c2cc(-c3cc(S(=O)(=O)NCCC(C)(C)O)ccc3C)cnc2N)o1 [Example 5.6, 3-(6-Amino-5-(5-methyl-1,3,4-oxa-diazol-2-yl)pyridin-3-yl)-N-(3-hydroxy-3-methylbutyl)-4-methylbenzenesulfon-amide]	4500 nM	> 10 µM	7.8 µM	700 nM	> 10 µM	–
Cc1cc(-c2cc(-c3cc(S(=O)(=O)N4CC(N(C)C)C4)ccc3C)cnc2N)on1 [Example 19.19, 5-(5-((3-(dimethylamino)azetidin-1-yl)sulfonyl)-2-methylphenyl)-3-(3-methylisoxazol-5-yl)pyridin-2-amine acetic acid salt]	–	> 10 µM	8.5 µM	3100 nM	–	IC50 [8]: > 10 µM
Cc1ccc(S(=O)(=O)NC2CC3(CC(O)C3)C2)cc1-c1cnc(N)c(-c2cn(C)nc2C)c1 (stereo not shown) [Example 26, 3-(6-Amino-5-(1,3-dimethyl-1H-pyrazol-4-yl)pyridin-3-yl)-N-(6-hydroxyspiro[3.3]heptan-2-yl)-4-methylbenzenesulfonamide]	3000 nM	> 10 µM	3.4 µM	220 nM	0.32 µM	–
Cc1cccc(NS(=O)(=O)c2ccc(C)c(-c3cnc(N)c(-c4cnn(C)c4)c3)c2)n1 [Example 30, 3-(6-Amino-5-(1-methyl-1H-pyrazol-4-yl)pyridin-3-yl)-4-methyl-N-(6-methylpyridin-2-yl)benzenesulfonamide]	1500 nM	> 10 µM	3.1 µM	330 nM	4.7 µM	–
Cc1noc(-c2cc(-c3cc(S(=O)(=O)N[C@@H]4CCNC(=O)C4)ccc3C)cnc2N)n1 [Example 37.25, (R)-3-(6-Amino-5-(3-methyl-1,2,4-oxadiazol-5-yl)pyridin-3-yl)-4-methyl-N-(2-oxopiperidin-4-yl)benzenesulfonamide]	> 10000 nM	> 10 µM	> 10 µM	3800 nM	> 10 µM	–
Cc1noc(-c2cc(-c3cc(S(=O)(=O)NCCN)ccc3C)cnc2N)n1 [Example 37.29, 3-(6-Amino-5-(3-methyl-1,2,4-oxadiazol-5-yl)pyridin-3-yl)-N-(2-aminoethyl)-4-methylbenzenesulfonamide]	910 nM	> 10 µM	7.1 µM	910 nM	> 10 µM	–
Cc1cc(-c2cc(-c3cc(S(=O)(=O)NCC4(O)CCC4)ccc3C)cnc2N)on1 [Example 37.35, 3-(6-Amino-5-(3-methylisoxazol-5-yl)pyridin-3-yl)-N-((1-hydroxycyclobutyl)methyl)-4-methylbenzenesulfonamide]	–	> 10 µM	–	–	> 10 µM	IC50 [9]: 101 nM
Cc1ccc(S(=O)(=O)N[C@H]2CC[C@H](O)CC2)cc1-c1cnc(N)c(-c2nc(CC(F)(F)F)no2)c1 [Example 78, trans-3-(6-Amino-5-(3-(2,2,2-trifluoroethyl)-1,2,4-oxadiazol-5-yl)pyridin-3-yl)-N-((1r,4r)-4-hydroxycyclohexyl)-4-methylbenzenesulfonamide]	2500 nM	> 10 µM	0.49 µM	–	–	IC50 [10]: > 10 µM
Cc1ncc(-c2cc(-c3cc(S(=O)(=O)N4CC(CO)C4)ccc3C)cnc2N)s1 [Example 83.1, (1-((3-(6-Amino-5-(2-methylthiazol-5-yl)pyridin-3-yl)-4-methylphenyl)sulfonyl)azetidin-3-yl)methanol]	2500 nM	–	–	400 nM	–	IC50 [11]: 1300 nM
Cc1ncc(-c2cc(-c3cc(S(=O)(=O)NCC4(O)COC4)ccc3C)cnc2N)s1 [Example 83.3, 3-(6-amino-5-(2-methylthiazol-5-yl)pyridin-3-yl)-N-((3-hydroxyoxetan-3-yl)methyl)-4-methylbenzenesulfonamide]	3000 nM	9.7 µM	1.7 µM	570 nM	–	IC50 [11]: 900 nM
Cc1ncc(-c2cc(-c3cc(S(=O)(=O)NCC(C)(C)CO)ccc3C)cnc2N)s1 [Example 83.4, 3-(6-Amino-5-(2-methylthiazol-5-yl)pyridin-3-yl)-N-(3-hydroxy-2,2-dimethylpropyl)-4-methylbenzenesulfonamide]	2100 nM	2.2 µM	1.3 µM	350 nM	–	–
Cc1ncc(-c2cc(-c3cc(S(=O)(=O)NCCO)ccc3C)cnc2N)s1 [Example 83.5, 3-(6-Amino-5-(2-methylthiazol-5-yl)pyridin-3-yl)-N-(2-hydroxyethyl)-4-methylbenzenesulfonamide]	3400 nM	5.2 µM	2.8 µM	430 nM	–	–
Cc1noc(-c2cc(-c3cc(S(=O)(=O)NCC(C)(C)O)c(C)cc3C)cnc2N)n1 [Example 100]	2250 nM	> 10 µM	4.25 µM	260 nM	–	IC50 [12]: 4.14 µM; IC50 [10]: > 10 µM
Cc1ncc(-c2cc(-c3cc(S(=O)(=O)N[C@H]4CCC[C@H](O)C4)ccc3C)cnc2N)o1 [Example 112, 3-(6-amino-5-(2-methyloxazol-5-yl)pyridin-3-yl)-N-((1S,3S)-3-hydroxycyclohexyl)-4-methylbenzenesulfonamide]	660 nM	3.5 µM	0.73 µM	140 nM	–	–
Cc1ncc(-c2cc(-c3cc(S(=O)(=O)NC(CO)C(F)(F)F)ccc3C)cnc2N)o1 (stereo not shown) [Example 114.2, 3-(6-amino-5-(2-methyloxazol-5-yl)pyridin-3-yl)-4-methyl-N-(1,1,1-trifluoro-3-hydroxypropan-2-yl)benzenesulfonamide]	2800 nM	4.4 µM	2.3 µM	410 nM	–	–
Cc1ncc(-c2cc(-c3cc(S(=O)(=O)NCC4(O)CCOCC4)ccc3C)cnc2N)o1 [Example 114.3, 3-(6-amino-5-(2-methyloxazol-5-yl)pyridin-3-yl)-N-((4-hydroxytetrahydro-2H-pyran-4-yl)methyl)-4-methylbenzenesulfon-amide]	8400 nM	> 10 µM	8.1 µM	590 nM	–	–
Cc1ncc(-c2cc(-c3cc(S(=O)(=O)NC4CCC(O)(C(F)(F)F)C4)ccc3C)cnc2N)o1 (stereo not shown) [Example 114.4, 3-(6-amino-5-(2-methyloxazol-5-yl)pyridin-3-yl)-N-(3-hydroxy-3-(trifluoromethyl)cyclo-pentyl)-4-methylbenzenesulfon-amide]	1200 nM	1.2 µM	0.63 µM	80 nM	–	–
